test system: FGFR3 enzyme; test: FGFR Enzymatic Assay (FRET peptide phosphorylation), FGFR3; format: biochemical; conditions: IC50 ratio showing FGFR3 selectivity; Table 2A, pre-incubated for 4 hours
Method: The inhibitor potency of the exemplified compounds was measured in an enzyme assay that measures peptide phosphorylation using FRET measurements to detect product formation. Inhibitors were serially diluted in DMSO and a volume of 0.5 μL was transferred to the wells of a 384-well plate.
GraphPad prism3 was used to analyze the data.

| FGFR1/FGFR3 | FGFR4/FGFR3 | SMILES |
| --- | --- | --- |
| >3 | >5 | COc1cc(OC)c(F)c(N2Cc3cnc(-c4cn(C)nc4C)cc3N(c3ccc(C(=O)N(C)C)cc3)C2=O)c1F [Example 113, 4-(3-(2,6-difluoro-3,5-dimethoxyphenyl)-7-(1,3-dimethyl-1H-pyrazol-4-yl)-2-oxo-3,4-dihydropyrido[4,3-d]pyrimidin-1(2H)-yl)-N,N-dimethylbenzamide] |
| >3 | >5 | COc1cc(OC)c(F)c(N2Cc3cnc(-c4cn(C)nc4C)cc3N(CCc3cnn(C)c3)C2=O)c1F [Example 114, 3-(2,6-difluoro-3,5-dimethoxyphenyl)-7-(1,3-dimethyl-1H-pyrazol-4-yl)-1-(2-(1-methyl-1H-pyrazol-4-yl)ethyl)-3,4-dihydropyrido[4,3-d]pyrimidin-2(1H)-one] |
| >3 | >5 | COc1cc(OC)c(F)c(N2Cc3cnc(-c4cn(C)nc4C)cc3N(c3ccc(-c4nnc(C)o4)cc3)C2=O)c1F [Example 115, 3-(2,6-difluoro-3,5-dimethoxyphenyl)-7-(1,3-dimethyl-1H-pyrazol-4-yl)-1-(4-(5-methyl-1,3,4-oxadiazol-2-yl)phenyl)-3,4-dihydropyrido[4,3-d]pyrimidin-2(1H)-one] |
| >5 | >3 | COC(=O)Nc1ccc(N2C(=O)N(c3c(F)c(OC)cc(OC)c3F)Cc3cnc(-c4cn(C)nc4C)cc32)cc1 [Example 123, Methyl 4-(3-(2,6-difluoro-3,5-dimethoxyphenyl)-7-(1,3-dimethyl-1H-pyrazol-4-yl)-2-oxo-3,4-dihydropyrido[4,3-d]pyrimidin-1(2H)-yl)phenylcarbamate] |
| >10 | >10 | COc1cc(OC)c(F)c(N2Cc3cnc(-c4cn(C)nc4C)cc3N(Cc3cnn(C4CC4)c3)C2=O)c1F [Example 124, 1-((1-cyclopropyl-1H-pyrazol-4-yl)methyl)-3-(2,6-difluoro-3,5-dimethoxyphenyl)-7-(1,3-dimethyl-1H-pyrazol-4-yl)-3,4-dihydropyrido[4,3-d]pyrimidin-2(1H)-one] |
| >5 | >5 | COc1cc(OC)c(F)c(N2Cc3cnc(-c4cn(C)nc4C)cc3N(Cc3cnn(CC#N)c3)C2=O)c1F [Example 125, 2-(4-((3-(2,6-difluoro-3,5-dimethoxyphenyl)-7-(1,3-dimethyl-1H-pyrazol-4-yl)-2-oxo-3,4-dihydropyrido[4,3-d]pyrimidin-1(2H)-yl)methyl)-1H-pyrazol-1-yl)acetonitrile] |
| >5 | >10 | COc1cc(OC)c(F)c(N2Cc3cnc(-c4cn(C)nc4C)cc3N(c3cn[nH]c3)C2=O)c1F [Example 129, 3-(2,6-difluoro-3,5-dimethoxyphenyl)-7-(1,3-dimethyl-1H-pyrazol-4-yl)-1-(1H-pyrazol-4-yl)-3,4-dihydropyrido[4,3-d]pyrimidin-2(1H)-one] |
| >3 | >10 | CCn1cc(N2C(=O)N(c3c(F)c(OC)cc(OC)c3F)Cc3cnc(-c4cn(C)nc4C)cc32)cn1 [Example 131, 3-(2,6-difluoro-3,5-dimethoxyphenyl)-7-(1,3-dimethyl-1H-pyrazol-4-yl)-1-(1-ethyl-1H-pyrazol-4-yl)-3,4-dihydropyrido[4,3-d]pyrimidin-2(1H)-one] |
| >3 | >5 | CCCn1cc(N2C(=O)N(c3c(F)c(OC)cc(OC)c3F)Cc3cnc(-c4cn(C)nc4C)cc32)cn1 [Example 132, 3-(2,6-difluoro-3,5-dimethoxyphenyl)-7-(1,3-dimethyl-1H-pyrazol-4-yl)-1-(1-propyl-1H-pyrazol-4-yl)-3,4-dihydropyrido[4,3-d]pyrimidin-2(1H)-one] |
| >3 | >5 | COc1cc(OC)c(F)c(N2Cc3cnc(-c4cn(C)nc4C)cc3N(c3ccc4cn[nH]c4c3)C2=O)c1F [Example 133, 3-(2,6-difluoro-3,5-dimethoxyphenyl)-7-(1,3-dimethyl-1H-pyrazol-4-yl)-1-(1H-indazol-6-yl)-3,4-dihydropyrido[4,3-d]pyrimidin-2(1H)-one] |
| >3 | >5 | COc1cc(OC)c(F)c(N2Cc3cnc(-c4cn(C)nc4C)cc3N(c3ccc4[nH]ncc4c3)C2=O)c1F [Example 134, 3-(2,6-difluoro-3,5-dimethoxyphenyl)-7-(1,3-dimethyl-1H-pyrazol-4-yl)-1-(1H-indazol-5-yl)-3,4-dihydropyrido[4,3-d]pyrimidin-2(1H)-one] |
| >5 | >10 | COc1cc(OC)c(F)c(N2Cc3cnc(-c4ccc(C5(C#N)CCC5)nc4)cc3N(c3ccncn3)C2=O)c1F [Example 135, 1-(5-(3-(2,6-difluoro-3,5-dimethoxyphenyl)-2-oxo-1-(pyrimidin-4-yl)-1,2,3,4-tetrahydropyrido[4,3-d]pyrimidin-7-yl)pyridin-2-yl)cyclobutanecarbonitrile] |
| >10 | >5 | COc1cc(OC)c(F)c(N2Cc3cnc(-c4cn(CCCN5CCOCC5)nc4C)cc3C3(CC3)C2=O)c1F [Example 146, 2′-(2,6-difluoro-3,5-dimethoxyphenyl)-6′-(3-methyl-1-(3-morpholinopropyl)-1H-pyrazol-4-yl)-1′H-spiro[cyclopropane-1,4′-[2,7]naphthyridin]-3′(2′H)-one] |
| >10 | >3 | COc1cc(OC)c(F)c(N2Cc3cnc(-c4cnn(C5CCN(S(C)(=O)=O)C5)c4)cc3C3(CC3)C2=O)c1F (stereo not drawn) [Example 147, 2′-(2,6-difluoro-3,5-dimethoxyphenyl)-6′-(1-(1-(methylsulfonyl)pyrrolidin-3-yl)-1H-pyrazol-4-yl)-1′H-spiro[cyclopropane-1,4′-[2,7]naphthyridin]-3′(2′H)-one] |
| >10 | >3 | COc1cc(OC)c(F)c(N2Cc3cnc(-c4cnn(CCC5CCN(S(C)(=O)=O)CC5)c4)cc3C3(CC3)C2=O)c1F [Example 148, 2′-(2,6-difluoro-3,5-dimethoxyphenyl)-6′-(1-(2-(1-(methylsulfonyl)piperidin-4-yl)ethyl)-1H-pyrazol-4-yl)-1′H-spiro[cyclopropane-1,4′-[2,7]naphthyridin]-3′(2′H)-one] |
| >5 | >3 | COc1cc(OC)c(F)c(N2Cc3cnc(-c4cnn(C5(C#N)CCC5)c4C)cc3C3(CC3)C2=O)c1F [Example 149, 1-(4-(2′-(2,6-difluoro-3,5-dimethoxyphenyl)-3′-oxo-2′,3′-dihydro-1′H-spiro[cyclopropane-1,4′-[2,7]naphthyridine]-6′-yl)-5-methyl-1H-pyrazol-1-yl)cyclobutanecarbonitrile] |
| >5 | >5 | COc1cc(OC)c(F)c(N2Cc3cnc(-c4cnn(C5CCN(C(C)=O)C5)c4)cc3C3(CC3)C2=O)c1F (stereo not drawn) [Example 150, 6′-(1-(1-acetylpyrrolidin-3-yl)-1H-pyrazol-4-yl)-2′-(2,6-difluoro-3,5-dimethoxyphenyl)-1′H-spiro[cyclopropane-1,4′-[2,7]naphthyridin]-3′(2′H)-one] |
| >5 | >5 | COc1cc(OC)c(F)c(N2Cc3cnc(-c4cnn(CCCN5CCOCC5)c4)cc3C3(CC3)C2=O)c1F [Example 151, 2′-(2,6-difluoro-3,5-dimethoxyphenyl)-6′-(1-(3-morpholinopropyl)-1H-pyrazol-4-yl)-1′H-spiro[cyclopropane-1,4′-[2,7]naphthyridin]-3′(2′H)-one] |
| >5 | >3 | COc1cc(OC)c(F)c(N2Cc3cnc(-c4cnn(CCN5CCC(OC)CC5)c4)cc3C3(CC3)C2=O)c1F [Example 152, 2′-(2,6-difluoro-3,5-dimethoxyphenyl)-6′-(1-(2-(4-methoxypiperidin-1-yl)ethyl)-1H-pyrazol-4-yl)-1′H-spiro[cyclopropane-1,4′-[2,7]naphthyridin]-3′(2′H)-one] |
| >5 | >3 | COc1cc(OC)c(F)c(N2Cc3cnc(-c4cn(CC#N)nc4C)cc3C3(CC3)C2=O)c1F [Example 153, 2-(4-(2′-(2,6-difluoro-3,5-dimethoxyphenyl)-3′-oxo-2′,3′-dihydro-1′H-spiro[cyclopropane-1,4′-[2,7]naphthyridine]-6′-yl)-3-methyl-1H-pyrazol-1-yl)acetonitrile] |
| >5 | >1 | COc1cc(OC)c(F)c(N2Cc3cnc(-c4cn(Cc5cccnc5)nc4C)cc3C3(CC3)C2=O)c1F [Example 155, 2′-(2,6-difluoro-3,5-dimethoxyphenyl)-6′-(3-methyl-1-(pyridin-3-ylmethyl)-1H-pyrazol-4-yl)-1′H-spiro[cyclopropane-1,4′-[2,7]naphthyridin]-3′(2′H)-one] |

| SMILES | FGFR1/FGFR3 | FGFR4/FGFR3 |
| --- | --- | --- |
| COC(=O)N1CCC(N2C(=O)N(c3c(F)c(OC)cc(OC)c3F)Cc3cnc(-c4cn(C)nc4C)cc32)CC1 [Example 122, Methyl 4-(3-(2,6-difluoro-3,5-dimethoxyphenyl)-7-(1,3-dimethyl-1H-pyrazol-4-yl)-2-oxo-3,4-dihydropyrido[4,3-d]pyrimidin-1(2H)-yl)piperidine-1-carboxylate] | >5 | >5 |
| COc1cc(OC)c(F)c(N2Cc3cnc(-c4cn(C)nc4C)cc3N(c3cnn(C4CC4)c3)C2=O)c1F [Example 130, 1-(1-cyclopropyl-1H-pyrazol-4-yl)-3-(2,6-difluoro-3,5-dimethoxyphenyl)-7-(1,3-dimethyl-1H-pyrazol-4-yl)-3,4-dihydropyrido[4,3-d]pyrimidin-2(1H)-one] | >5 | >5 |
| COc1cc(OC)c(F)c(N2Cc3cnc(-c4cn(C5CCN(CC#N)C5)nc4C)cc3C3(CC3)C2=O)c1F (stereo not drawn) [Example 154, 2-(3-(4-(2′-(2,6-difluoro-3,5-dimethoxyphenyl)-3′-oxo-2′,3′-dihydro-1′H-spiro[cyclopropane-1,4′-[2,7]naphthyridine]-6′-yl)-3-methyl-1H-pyrazol-1-yl)pyrrolidin-1-yl)acetonitrile] | >5 | >3 |

Reference: patent US11173162B2, “Bicyclic heterocycles as FGFR4 inhibitors” (Incyte Corporation, priority 2015, dated 2021)
